4 molecules from ChEMBL document CHEMBL4219105, “Novel polyamine-based Histone deacetylases-Lysine demethylase 1 dual binding inhibitors” (Bioorg Med Chem Lett, 2018) can be followed below.

The target in assay [1] is T1, Lysine-specific histone demethylase 1A/REST corepressor (Homo sapiens, UniProt O60341+Q9P2K3).
Description: (§1) Inhibition of human recombinant LSD1/CoREST3 expressed in Escherichia coli using monomethylatedH3meK4 peptide as substrate preincubated for 15 mins followed by substrate addition measured after 12 mins by fluorescence based assay
The target of assay [2] is T2, HDAC1/REST corepressor 3 (Homo sapiens, UniProt Q13547+Q9P2K3).
Description: (§2) Inhibition of HDAC1/CoREST3 in HEK293 whole cell extract using fluorescent acetylated histone peptide as substrate after 60 mins by fluorescence based assay
The subject of assay [3] is MCF7. The assay can be described thus: Cytotoxic activity against human MCF7 cells assessed as reduction in cell viability at 4 uM after 24 hrs by MTT assay relative to control. Format: functional. On the technique in general: Formazan colour is commonly taken as a measure of viable cells.
The test system of assay [4] is MCF7. The assay can be described thus: Cytotoxic activity against human MCF7 cells assessed as reduction in cell viability at 16 uM after 24 hrs by MTT assay relative to control. The assay is classed as functional.
For assay [5], the system named is MCF7. As to the kind of experiment: Cytotoxic activity against human MCF7 cells assessed as reduction in cell viability at 70 uM after 24 hrs by MTT assay relative to control. Format: functional.
Assay [6] deals with MCF7. As to the kind of experiment: cells. The assay is classed as functional, cell-based. To be noted: Homo sapiens, MCF7, 24 h.
Description: Cytotoxic activity against human MCF7 cells after 24 hrs by MTT assay
Assay [7] deals with MCF7. The assay can be described thus: Cytotoxic activity against human MCF7 cells assessed as reduction in cell viability at 35 uM after 24 hrs by MTT assay relative to control. The assay is classed as functional.
In assay [8] the target is T3, Histone deacetylase (Homo sapiens) (UniProt Q13547+O15379+Q9UBN7+Q92769+Q9UQL6+Q8WUI4+Q9BY41+Q96DB2+P56524+Q9UKV0+Q969S8). The assay can be described thus: Inhibition of HDAC in human MCF7 cell nuclear extract using acetylated lysine as substrate at 17 uM after 1 hr by colorimetric analysis relative to control. Format: protein assay.
The target in assay [9] is T1, Lysine-specific histone demethylase 1A/REST corepressor. The source holds these as a separate data set.
Description: as §1
Assay [10] has as its target T2, HDAC1/REST corepressor 3. The source holds these as a separate data set.
Description: as §2
Assay [11] concerns the target T3, Histone deacetylase (Homo sapiens). The assay can be described thus: Inhibition of HDAC in human MCF7 cell nuclear extract using acetylated lysine as substrate at 70 uM after 1 hr by colorimetric analysis relative to control. The assay is classed as protein assay.

T2 sequence (Q13547 whole entry, other chains not shown): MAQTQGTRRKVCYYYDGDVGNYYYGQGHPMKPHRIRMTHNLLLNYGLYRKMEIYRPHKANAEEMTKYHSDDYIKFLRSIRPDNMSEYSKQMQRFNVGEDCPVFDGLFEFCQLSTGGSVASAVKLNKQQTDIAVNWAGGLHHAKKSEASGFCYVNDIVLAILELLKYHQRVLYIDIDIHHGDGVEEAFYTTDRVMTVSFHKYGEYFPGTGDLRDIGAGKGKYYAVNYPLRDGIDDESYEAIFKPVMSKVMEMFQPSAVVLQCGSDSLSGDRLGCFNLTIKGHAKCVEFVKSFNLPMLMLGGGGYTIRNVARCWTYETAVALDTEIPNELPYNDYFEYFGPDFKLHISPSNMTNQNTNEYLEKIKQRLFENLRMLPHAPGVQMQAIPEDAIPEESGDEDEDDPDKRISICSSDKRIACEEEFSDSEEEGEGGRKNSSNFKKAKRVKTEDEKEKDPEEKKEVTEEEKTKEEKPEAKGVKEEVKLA

For orientation: IC50 means the concentration that gives 50% inhibition. Read a high IC50 as weaker potency in that assay. One may read the Ki as a dissociation constant, usually derived from enzyme kinetics or from competition with a known ligand. High values mean a looser hold on the target, low ones a stronger hold on the target. On to `Cl.Cl.Cl.N[C@@H]1C[C@H]1c1ccc(NC(=O)CCC(=O)NCCCCCCNCCCCCCCCNCCCCCCNC(=O)c2ccc(NC(=O)CCCCCCC(=O)NO)cc2)cc1`, for which, in assay [1], the half-maximal inhibitory concentration (IC50) entry is listed as “Nd(Insoluble)”. On HDAC1/REST corepressor 3 [2], the inhibitory constant (Ki) result is given as “Nd(Insoluble)”.
With `O=C(CCCCCCC(=O)Nc1ccccc1)NO` [VORINOSTAT], the Activity in the assay on MCF7 [3] came to 20.8%; with MCF7 [4], 49.3%; in the assay on MCF7 [5], 56.6%.
In general, inhibition refers to the share of the control response that was lost under treatment. Lower therefore signals a weak effect. Take `Cl.Cl.Cl.N[C@@H]1C[C@H]1c1ccc(NC(=O)CCC(=O)NCCCNCCCCNCCCNC(=O)c2ccc(NC(=O)CCCCCCC(=O)NO)cc2)cc1`: the IC50 came to 39.6 µM with MCF7 [6] and 3.85 µM in assay [9]. Moreover, the Activity with MCF7 [3] came out at 16.3%; with MCF7 [7] it was 52.7%; with MCF7 [5], 68.6%. Besides, in [8], the inhibition amounted to 50.2%. For the same molecule, the Ki at HDAC1/REST corepressor 3 [10] stood at 42.5 nM.
Turning to `Cl.Cl.N[C@@H]1C[C@H]1c1ccc(NC(=O)CCC(=O)NCCCNCCCNC(=O)c2ccc(NC(=O)CCCCCCC(=O)NO)cc2)cc1`, the figures for the concentration for half-maximal inhibition (IC50) (in the assay on MCF7 [6]; in [9]) were 60.2 µM and 2.4 µM, respectively. Further, the Activity with MCF7 [5] came out at 52%. Moreover, the inhibition in [11] stood at 35.8%. In addition, on HDAC1/REST corepressor 3 [10], the Ki is 26.9 nM.
